How the values were obtained:
Type in all cases: cell-based
[1] = tested on: MCF-7 (human breast cancer) cell line; test: In vitro cytotoxic activity, MTT assay, MCF-7; settings: for IC50: MCF7, 50, 25, 12.5 and 6.25 μM, three independent experiments, read-out: IC50 ± SEM (50% cell growth inhibition), MCF7; for Cytotoxic activity in words (comparison): MCF-7, 6.2 μM to 50 μM
Description: (§1) A Pt(II) metal precursor, cisplatin, carboplatin and seven synthesized complexes (1)-(7) were evaluated for their in-vitro cytotoxic activity against HeLa (human cervical cancer), A549 (human lung cancer), MCF-7 (human breast cancer) and HTC15 (human colon cancer) cell lines.
(§2) The cells were seeded at 4×10^3 cells/well in 100 μL DMEM (Dulbecco's Modified Eagle's Medium) containing 10%. FBS (Fetal Bovine Serum) in 96-well tissue culture plate and incubated for 72 h at 37° C., 5% CO2 in air and 90% relative humidity in CO2 incubator. […] The medium of wells was discarded and 100 μL DMEM containing MTT (3-(4,5-dimethylthiazol-2-Yl)-2,5-diphenyltetrazolium bromide) (5 mg/mL) was added to the wells and incubated in CO2 incubator at 37° C. in dark for 4 h. After incubation, a purple colored formazan (artificial chromogenic dye, product of the reduction of water insoluble tetrazolium salts e.g., MMT by dehydrogenases and reductases) in the cells is produced and appeared as dark crystals in the bottom of the wells. The medium of culture was discarded from each well carefully to avoid disruption of monolayer and 100 μL of dimethylsufoxide (DMSO) was added in each well. The solution was thoroughly mixed in the wells to dissolve the formazan crystals which ultimately result into a purple solution. The absorbance of the 96-wells plate was taken at 570 nm with Labsystems Multiskan EX-Enzyme-linked immunosorbent assay (EX-ELISA) reader against a reagent blank. The IC50 values were calculated from three independent experiments by generating an equation of logarithmic trendline of percentage cell viability against concentration of compounds in Microsoft Excel.
(§3) Preliminary anti-cancer activity studies were carried out on seven synthesized Pt(II) complexes (1)-(7), Pt(II) precursor, cisplatin and carboplatin against four cancer cell lines HeLa, A549, HCT15 and MCF-7 (human cancer cell lines) and an MTT assay was used to determine their dose-dependent cytotoxicity after 72 h [U. Bierbach, T. W. Hambly, N. Farrell, Inorg.
(§4) The MTT assay was performed in three independent experiments, each in triplicate. The cancer cell lines used are HeLa (human cervical cancer), A549 (human lung cancer), MCF-7 (human breast cancer) and HCT15 (human colon cancer) cell lines.

[2] = tested on: HCT15 (human colon cancer) cell line; test: In vitro cytotoxic activity, MTT assay, HCT15; settings: for IC50: 50, 25, 12.5 and 6.25 μM, three independent experiments, read-out: IC50 ± SEM (50% cell growth inhibition), HCT15; for Cytotoxic activity in words (comparison): 6.2 μM to 50 μM
Description: as §1, §2, §3, §4

[3] = tested on: A549 (human lung cancer) cell line; test: In vitro cytotoxic activity, MTT assay, A549; settings: for IC50: 50, 25, 12.5 and 6.25 μM, three independent experiments, read-out: IC50 ± SEM (50% cell growth inhibition), A549; for Cytotoxic activity in words (comparison): 6.2 μM to 50 μM
Description: as §1, §2, §3, §4

[4] = tested on: HeLa (human cervical cancer) cell line; test: In vitro cytotoxic activity, MTT assay, HeLa; settings: for IC50: 50, 25, 12.5 and 6.25 μM, three independent experiments, read-out: IC50 ± SEM (50% cell growth inhibition), HeLa; for Cytotoxic activity in words (comparison): 6.2 μM to 50 μM
Description: as §1, §2, §3, §4

| Compound | IC50 [1] [µM] | IC50 [2] [µM] | IC50 [3] [µM] | IC50 [4] [µM] | Cytotoxic activity in words (comparison) [1] | Cytotoxic activity in words (comparison) [2] | Cytotoxic activity in words (comparison) [3] | Cytotoxic activity in words (comparison) [4] |
| --- | --- | --- | --- | --- | --- | --- | --- | --- |
| cis-bis(triethylphosphine)di(tetrahydropyrimidine-2(1H)-thione)platinum(II) [Complex (5)] | 4.73 ± 0.95 | 6.87 ± 1.07 | 4.5 ± 0.78 | 2.23 ± 0.52 |  |  |  |  |
| CCN1CCCNC1=[SH][Pt+2]([SH]=C1NCCCN1CC)([PH](CC)(CC)CC)[PH](CC)(CC)CC.[Cl-].[Cl-] [Complex (6)] | 1.23 ± 0.34 | 5.7 ± 0.91 | 3.6 ± 0.72 | 1.83 ± 0.35 | highest activity | better than cisplatin and carboplatin | better than cisplatin and carboplatin | better than cisplatin and carboplatin |
| N.N.O=C([O-])C1(C(=O)[O-])CCC1.[Pt+2] [Carboplatin, carboplatin, reference compound] | 55.6 ± 2.53 | 63.9 ± 2.25 | 71.2 ± 2.84 | 56.5 ± 2.23 |  |  |  |  |
| cis-bis(triethylphosphine)di(1-methylimidazolidine-2-thione)platinum(II) [Complex (2)] | 2.63 ± 0.88 | 8.6 ± 0.93 | 3.93 ± 0.47 | 1.83 ± 0.26 |  |  |  |  |
| CC[PH](CC)(CC)[Pt+2]([SH]=C1NCCCCN1)([SH]=C1NCCCCN1)[PH](CC)(CC)CC.[Cl-].[Cl-] [Complex (7), cis-bis(triethylphosphine)di(1,3-diazepane-thione)platinum(II)] | 22.3 ± 1.35 | 37.1 ± 1.86 | 27.7 ± 1.48 | 17.3 ± 1.34 |  |  |  |  |
| CC[PH](CC)(CC)[Pt+2]([SH]=C1NCCN1)([SH]=C1NCCN1)[PH](CC)(CC)CC.[Cl-].[Cl-] [Complex (1), cis-bis(triethylphosphine)di(imidazolidine-2-thione)platinum(II)] | 4.67 ± 1.05 | 7.03 ± 1.04 | 3.5 ± 0.74 | 1.4 ± 0.29 |  |  |  |  |
| CCN1CCN(CC)C1=[SH][Pt+2]([SH]=C1N(CC)CCN1CC)([PH](CC)(CC)CC)[PH](CC)(CC)CC.[Cl-].[Cl-] [Complex (4), cis-bis(triethylphosphine)di(1,3-diethylimidazolidine-2-thione)platinum(II)] | 13.5 ± 1.36 | 16.1 ± 1.13 | 12.6 ± 1.09 | 9.9 ± 1.65 |  |  |  |  |
| CC[PH](CC)(CC)[Pt+2]([SH]=C1N(C)CCN1C)([SH]=C1N(C)CCN1C)[PH](CC)(CC)CC.[Cl-].[Cl-] [Complex (3), cis-bis(triethylphosphine)di(1,3-dimethylimidazolidine-2-thione)platinum(II)] | 3.77 ± 0.61 | 4.23 ± 0.73 | 2.37 ± 0.29 | 1.5 ± 0.21 | most effective against all cancer cell lines | most effective against all cancer cell lines | most effective against all cancer cell lines | most effective against all cancer cell lines |
| N.N.[Cl][Pt][Cl] [Cisplatin, cis-diaminedichlorido platinum(II) complex cis-[(NH3)2PtCl2], reference compound] | 22.4 ± 1.37 | 29.7 ± 2.35 | 41.7 ± 1.17 | 19.2 ± 1.81 |  |  |  |  |
| CCP(CC)CC.CCP(CC)CC.[Cl][Pt][Cl] [Pt(II) precursor, cis-Bis(triethylphosphine)platinum(II)chloride, reference compound] | 59.8 ± 2.15 | 39.1 ± 1.98 | 55.6 ± 2.53 | 45.8 ± 2.33 |  |  |  |  |
